Results published in the supplement of paper PMC10307832.

How the values were obtained:
Experiment in all cases: relative viability (nuclei count vs DMSO), 5 days (fraction); higher = more cells survive
[1] = compound: CC1=CC=C(C=C1)C(=O)CN2C3=C(CCCC3)SC2=N [Pifithrin_alpha]
Procedure, shortened: (§1)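 For viability, nuclei in each treated well were divided by nuclei in vehicle wells and the median across plates was taken. Lung cancer cell lines in 1536-well plates were pinned with five library-drug doses (not always all listed) spaced by √10, cultured 5 days without medium change, and imaged at 4× after Hoechst staining, with plates passing only at control CV below 25% and at least one doubling.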

[2] = compound: CNC(=O)c1ccccc1Sc1ccc2c(/C=C/c3ccccn3)n[nH]c2c1 [Axitinib]
Procedure, shortened: as §1

[3] = compound: Nc1nc(Nc2ccc3c(c2)CC[C@@H](N2CCCC2)CC3)nn1-c1cc2c(nn1)-c1ccccc1CCC2 [Bemcentinib]
Procedure, shortened: as §1

[4] = compound: Nc1nc(Nc2ccc3c(c2)CC[C@@H](N2CCCC2)CC3)nn1-c1cc2c(nn1)-c1ccccc1CCC2 [Bemcentinib] + CC(=O)Nc1cccc(-n2c(=O)n(C3CC3)c(=O)c3c(Nc4ccc(I)cc4F)n(C)c(=O)c(C)c32)c1 [Trametinib] (partner 0.02 µM)
Procedure, shortened: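 Lung cancer cell lines were pin-tool dosed in 1536-well plates on the day after seeding, with either a lone drug or a fixed anchor-drug dose plus five library-drug doses (not always all listed) in √10 steps. Nuclei were counted on 4× images after 5 days. Relative viability is the ratio of treated-well to vehicle-well nuclei counts, with each value a median of duplicate plates.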

In the case of NCI-H650, the relative viability ([1]; 3.162 µM) is reported as 0.912, the relative viability ([1]; 10 µM) is reported as 1.07 and the relative viability ([1]; 31.62 µM) is reported as 0.766. It also gave a relative viability ([1]; 100 µM) of 0.863, a relative viability ([2]; 0.005 µM) of 1.01 and a relative viability ([2]; 0.01581 µM) of 0.983. It also gave a relative viability ([2]; 0.05 µM) of 0.892, a relative viability ([2]; 0.1581 µM) of 1.1 and a relative viability ([2]; 0.5 µM) of 1.01. It also gave a relative viability ([3]; 0.04 µM) of 0.866, a relative viability ([3]; 0.1265 µM) of 1.01 and a relative viability ([3]; 0.4 µM) of 1.15. For the same cell line, the relative viability ([3]; 1.265 µM) was 0.838, the relative viability ([3]; 4 µM) was 0.871 and the relative viability ([4]; first compound 0.04 µM) was 1.08. The relative viability ([4]; first compound 0.1265 µM) was 0.993, the relative viability ([4]; first compound 0.4 µM) was 0.963 and the relative viability ([4]; first compound 1.265 µM) was 0.947. The relative viability ([4]; first compound 4 µM) was 0.966.
